Source: US7563882B2, “Polynucleotides encoding antibodies that bind to the C35 polypeptide” (University of Rochester, priority 2002, dated 2009)

Test system: EBV-B target cells
Experiment: C35 peptide mediated T cell lysis of peptide pulsed EBV-B cells (Table 10)
Format: cell-based, human
Details: for % Lysis EBV-B cell Target: target pulsed with peptide
[1] = T cell clones from donor with A3, A66, B8 and B41 HLA haplotypes
[2] = T cell clone #72, donor (A2, A3; B18, B44)
[3] = T cell clone #75, donor (A2, A3; B18, B44)
[4] = T cell clone #104, donor (A2, A3; B18, B44)
[5] = T cells from donor with A2, A3, B18, B44 HLA haplotypes raised against 9mer 22-30

| Substance | lytic activity on EBV-B target cells pulsed with peptide [1] [%] | % Lysis EBV-B cell Target [2] [%] | % Lysis EBV-B cell Target [3] [%] | % Lysis EBV-B cell Target [4] [%] | lytic activity on EBV-B target cells pulsed with peptide [5] | also measured |
| --- | --- | --- | --- | --- | --- | --- |
| GGFPYEKDL [peptide 81-89] | 40.3 |  |  |  |  |  |
| GVRIVVEYC [peptide 22-30] |  | 72.8 | 56.8 | 100.3 | very active |  |
| IEINGQLVF [peptide 67-75] | 54.9 |  |  |  |  |  |
| QLVFSKLENGGFPYE [peptide 72-86] |  |  |  |  |  | % Lysis EBV-B cell Target (T cell clone #46, donor (A2, A3; B18, B44)): 78.5%; lytic activity on EBV-B cells pulsed with peptide (T cell clones from donor with A2, A3, B18, B44 HLA haplotypes): 78.5% |
| peptide 17-31: 15mer corresponding to amino acids 17-31 of C35 (SEQ ID NO:2) (VEPGSGVRIVVEYCE; listed as Homo sapiens) |  | 0.5 | 1.2 | 6.4 | minimal lysis |  |
